In patent publication US12156893B2, “Oral composition comprising lactic acid bacteria for regulating immune responses and methods related thereto” (The Regents of the University of California, priority 2016, dated 2024):

Test system: NK cells
Experiment: Production of cytokines, growth factors and chemokines by NK cells treated with bacterial strains (Bio-Plex 27-plex)
Type: cell-based, human
Set-up: unit not given here
Protocol: Different strains of probiotic bacteria were tested for their ability to induce IFN-g as well as a number of important cytokines, chemokines and growth factors (Table 1). To assess the levels of each strain used in the combination we used an activation index established in the lab for the NK cells which consisted of the use of a specific ratio of several important cytokines and chemokines that prevented auto-immunity while enhancing significant activation of NK cells under pathologic conditions. Therefore, the strains were selected to: 1) provide regulated activation of NK cells when no activation of NK cells is desired; 2) when activated by cytokines and/or cross-linking of the important receptors which occurs during functional activation of NK cells in cancer is to induce maximal activation of NK cells; and 3) provide diversity for gut microflora. These criteria allow us to use bacteria to regulate the gut mucosal immunity in such a way that we will only increase NK activation when needed during infections or malignancies. In other words when there is no need for function of NK cells bacteria will regulate NK function to not induce inflammation; however, during need which occurs under the pathological conditions NK cells are triggered to function at the maximal levels. Such coordinated regulation of NK cell function should be effective in halting unwanted inflammation while providing effective and maximal immunity during disease.
Written informed consents, approved by UCLA Institutional Review Board (IRB), were obtained from healthy blood donors, and all procedures were approved by the UCLA-IRB. Peripheral blood was separated using Ficoll-Hypaque centrifugation, after which the white, cloudy layer, containing peripheral blood mononuclear cells (PBMC), was harvested, washed and re-suspended in RPMI 1640 (Invitrogen by Life Technologies, CA) supplemented with 10% FBS and plated on plastic tissue culture dishes. After 1-2 hours of incubation, non-adherent, human peripheral blood lymphocytes (PBL) were collected. NK cells were negatively selected and isolated from PBLs using the EasySep® Human NK cell enrichment kit purchased from Stem Cell Technologies (Vancouver, BC, Canada). Isolated NK cells were stained with anti-CD16 antibody, to measure NK cell purity using flow cytometric analysis. The isolated NK cell population was greater than 90% purity. Purified NK cells were cultured in RPMI Medium 1640 supplemented with 10% FBS (Gemini Bio-Products, CA), 1% antibiotic antimycotic, 1% sodium pyruvate, and 1% MEM non-essential amino acids (Invitrogen, Life Technologies, CA).
Purified NK cells from healthy donors were left untreated or treated with IL-2 (1000 units/ml) or the combination of anti-CD16 mAb (3 μg/ml) and IL-2 (1000 units/ml) in the presence or absence of bacterial strains at 1:5 ratio (NK cell: bacteria) for 12-18 hours. Afterwards, the levels of cytokines, growth factors and chemokines were determined using Bio-Plex Pro Human Cytokine 27-plex Assay Kit.

[1] = Treatment NK (no activation), bacteria 1:5 NK cell:bacteria, 12-18 hours
[2] = Treatment NK + IL-2 (1000 units/ml), bacteria 1:5, 12-18 hours
[3] = Treatment NK + IL-2 + anti-CD16 mAb (3 μg/ml), bacteria 1:5, 12-18 hours

Lactobacillus paracasei [L. paracasei]
Eotaxin [1]: 4 | G-CSF [1]: 106 | GM-CSF [1]: 99 | IFN-γ [1]: 186 | IL-1B [1]: 320 | IL-1ra [1]: 129 | IL-6 [1]: 3029 | IL-8 [1]: 3716 | IL-10 [1]: 70 | IL-12p70 [1]: 70 | IL-13 [1]: 8 | IL-17 [1]: 40 | IP-10 [1]: 53 | MCP-1 [1]: 506 | RANTES [1]: 1069 | TNF-α [1]: 3809 | Eotaxin [2]: 27 | G-CSF [2]: 138 | GM-CSF [2]: 157 | IFN-γ [2]: 2112 | IL-1B [2]: 523 | IL-1ra [2]: 551 | IL-6 [2]: 7285 | IL-8 [2]: 3983 | IL-10 [2]: 47 | IL-12p70 [2]: 125 | IL-13 [2]: 15 | IL-17 [2]: 63 | IP-10 [2]: 90 | MCP-1 [2]: 337 | RANTES [2]: 6468 | TNF-α [2]: 6776 | Eotaxin [3]: 40 | G-CSF [3]: 153 | GM-CSF [3]: 215 | IFN-γ [3]: 2145 | IL-1B [3]: 721 | IL-1ra [3]: 573 | IL-6 [3]: 6867 | IL-8 [3]: 6385 | IL-10 [3]: 43 | IL-12p70 [3]: 123 | IL-13 [3]: 27 | IL-17 [3]: 90 | IP-10 [3]: 92 | MCP-1 [3]: 427 | RANTES [3]: >22609 | TNF-α [3]: 10128

Bifidobacterium longum [B. longum]
Eotaxin [1]: 32 | G-CSF [1]: 938 | GM-CSF [1]: 131 | IFN-γ [1]: 158 | IL-1B [1]: 813 | IL-1ra [1]: 312 | IL-6 [1]: 60895 | IL-8 [1]: 9507 | IL-10 [1]: 298 | IL-12p70 [1]: 42 | IL-13 [1]: 9 | IL-17 [1]: 74 | IP-10 [1]: 38 | MCP-1 [1]: 80 | RANTES [1]: 2325 | TNF-α [1]: 5880 | Eotaxin [2]: 33 | G-CSF [2]: 244 | GM-CSF [2]: 135 | IFN-γ [2]: 671 | IL-1B [2]: 408 | IL-1ra [2]: 472 | IL-6 [2]: 7287 | IL-8 [2]: 2195 | IL-10 [2]: 52 | IL-12p70 [2]: 47 | IL-13 [2]: 11 | IL-17 [2]: 73 | IP-10 [2]: 46 | MCP-1 [2]: 33 | RANTES [2]: 2189 | TNF-α [2]: 2896 | Eotaxin [3]: 28 | G-CSF [3]: 386 | GM-CSF [3]: 158 | IFN-γ [3]: 1282 | IL-1B [3]: 498 | IL-1ra [3]: 461 | IL-6 [3]: 2916 | IL-8 [3]: 2906 | IL-10 [3]: 68 | IL-12p70 [3]: 33 | IL-13 [3]: 19 | IL-17 [3]: 69 | IP-10 [3]: 42 | MCP-1 [3]: 75 | RANTES [3]: 1088 | TNF-α [3]: 4240

Lactobacillus plantarum [L. plantarum]
Eotaxin [1]: 36 | G-CSF [1]: 236 | GM-CSF [1]: 122 | IFN-γ [1]: 282 | IL-1B [1]: 645 | IL-1ra [1]: 323 | IL-6 [1]: 9500 | IL-8 [1]: 17756 | IL-10 [1]: 85 | IL-12p70 [1]: 130 | IL-13 [1]: 8 | IL-17 [1]: 78 | IP-10 [1]: 140 | MCP-1 [1]: 958 | RANTES [1]: 22609 | TNF-α [1]: 13887 | Eotaxin [2]: 36 | G-CSF [2]: 129 | GM-CSF [2]: 181 | IFN-γ [2]: 5484 | IL-1B [2]: 466 | IL-1ra [2]: 500 | IL-6 [2]: 4212 | IL-8 [2]: 3415 | IL-10 [2]: 43 | IL-12p70 [2]: 184 | IL-13 [2]: 14 | IL-17 [2]: 73 | IP-10 [2]: 115 | MCP-1 [2]: 427 | RANTES [2]: 1923 | TNF-α [2]: 9223 | Eotaxin [3]: 40 | G-CSF [3]: 125 | GM-CSF [3]: 216 | IFN-γ [3]: 3087 | IL-1B [3]: 714 | IL-1ra [3]: 575 | IL-6 [3]: 3679 | IL-8 [3]: 3247 | IL-10 [3]: 37 | IL-12p70 [3]: 155 | IL-13 [3]: 20 | IL-17 [3]: 78 | IP-10 [3]: 92 | MCP-1 [3]: 335 | RANTES [3]: 4147 | TNF-α [3]: 7942

Bifidobacterium infantis [B. infantis]
Eotaxin [1]: 18 | G-CSF [1]: 145 | GM-CSF [1]: 123 | IFN-γ [1]: 275 | IL-1B [1]: 249 | IL-1ra [1]: 179 | IL-6 [1]: 6136 | IL-8 [1]: 4265 | IL-10 [1]: 55 | IL-12p70 [1]: 66 | IL-13 [1]: 1 | IL-17 [1]: 56 | IP-10 [1]: 57 | MCP-1 [1]: 451 | RANTES [1]: 2234 | TNF-α [1]: 5728 | Eotaxin [2]: 19 | G-CSF [2]: 190 | GM-CSF [2]: 163 | IFN-γ [2]: 3073 | IL-1B [2]: 422 | IL-1ra [2]: 459 | IL-6 [2]: 6618 | IL-8 [2]: 5090 | IL-10 [2]: 41 | IL-12p70 [2]: 115 | IL-13 [2]: 19 | IL-17 [2]: 72 | IP-10 [2]: 113 | MCP-1 [2]: 382 | RANTES [2]: 3225 | TNF-α [2]: 5103 | Eotaxin [3]: 32 | G-CSF [3]: 151 | GM-CSF [3]: 178 | IFN-γ [3]: 1250 | IL-1B [3]: 365 | IL-1ra [3]: 434 | IL-6 [3]: 3927 | IL-8 [3]: 3557 | IL-10 [3]: 34 | IL-12p70 [3]: 47 | IL-13 [3]: 22 | IL-17 [3]: 65 | IP-10 [3]: 88 | MCP-1 [3]: 360 | RANTES [3]: 2646 | TNF-α [3]: 5287

Streptococcus thermophilus [S. thermophilus]
Eotaxin [1]: 40 | G-CSF [1]: 149 | GM-CSF [1]: 131 | IFN-γ [1]: 785 | IL-1B [1]: 1381 | IL-1ra [1]: 229 | IL-6 [1]: 10222 | IL-8 [1]: 3326 | IL-10 [1]: 63 | IL-12p70 [1]: 515 | IL-13 [1]: 9 | IL-17 [1]: 74 | IP-10 [1]: 64 | MCP-1 [1]: 502 | RANTES [1]: 2580 | TNF-α [1]: 18892 | Eotaxin [2]: 21 | G-CSF [2]: 87 | GM-CSF [2]: 124 | IFN-γ [2]: 1188 | IL-1B [2]: 390 | IL-1ra [2]: 465 | IL-6 [2]: 1773 | IL-8 [2]: 1341 | IL-10 [2]: 17 | IL-12p70 [2]: 132 | IL-13 [2]: 9 | IL-17 [2]: 65 | IP-10 [2]: 45 | MCP-1 [2]: 169 | RANTES [2]: 2197 | TNF-α [2]: 2413 | Eotaxin [3]: 29 | G-CSF [3]: 101 | GM-CSF [3]: 177 | IFN-γ [3]: 2594 | IL-1B [3]: 642 | IL-1ra [3]: 434 | IL-6 [3]: 2475 | IL-8 [3]: 1841 | IL-10 [3]: 23 | IL-12p70 [3]: 163 | IL-13 [3]: 15 | IL-17 [3]: 57 | IP-10 [3]: 58 | MCP-1 [3]: 332 | RANTES [3]: 2097 | TNF-α [3]: 4917
